The structures appear in SMILES notation.

Type in all cases: biochemical
Holding throughout (details): Means and SD of at least two independent experiments

One assay has as its target T1, NDM-1 (Klebsiella pneumoniae, UniProt C7C422).
T1 construct: made in house
Nature of the assay: In vitro inhibition assay (kinetic fluorescence-based activity assay), NDM-1. The method, then:
(§1) Protein expression and purification. The expression of IMP-7, VIM-1, and NDM-1 was performed according to the protocol previously published by Klingler et al. (Klingler, F. M.; Wichelhaus, T. A.; Frank, D.; Cuesta-Bernal, J.; El-Delik, J.; Müller, H. F.; Sjuts, H.; Gottig, S.; Koenigs, A.; Pos, K. M.; et al. Approved Drugs Containing Thiols as Inhibitors of Metallo-β-Lactamases: Strategy to Combat Multidrug-Resistant Bacteria. J. Med. Chem. 2015, 58 (8), 3626-3630. https://doi.org/10.1021/jm501844d) with slight modifications.
(§2) In vitro inhibition assay. Activity assays for NDM-1, VIM-1, VIM-2 and IMP-7 were carried out, as described by Klingler et al. Final protein concentrations were 0.5 nM (NDM-1), 4.0 nM (VIM-1), and 0.1 nM (IMP-7) in a 50 mM HEPES buffer (pH 7.5, 0.01% Triton X-100) Substrate (Fluorocillin™ (Invitrogen, Darmstadt, Germany) was dissolved in assay buffer to a final concentration of 888 nM. Test compounds were dissolved and pre-diluted in DMSO (final concentration: 1%). In a black polystyrol 96-well plate (Corning) an amount of […] of the respective inhibitor solution at different concentrations was incubated with […] of respective protein containing buffer for 30 minutes at room temperature. […] of substrate solution was added. The readout of the emitted fluorescence was started immediately (45 s for 30 cycles) using a Tecan Infinite F200Pro (Tecan Group Ltd; excitation at 495 nm and emission at 525 nm). Blank controls were performed without enzyme. Positive controls were performed with enzyme but without inhibitor. The inhibitory activity of each test compound was measured in three independent experiments. For calculation of IC50 values, data obtained from measurements with eight different inhibitor concentrations were used. For the evaluation of the sigmoidal dose response equation (variable slope with four parameters) GraphPad Prism 5 (GraphPad Software, La Jolla, Calif., USA) was used.

Another assay has as its target IMP-7 (Pseudomonas aeruginosa, UniProt Q93AU3). Nature of the assay: In vitro inhibition assay (kinetic fluorescence-based activity assay), IMP-7. The procedure: as §1, §2
The target of a further assay is T2, VIM-1 (Pseudomonas aeruginosa, UniProt A0A0F7KYQ8).
T2 construct: made in house
The experiment in a line: In vitro inhibition assay (kinetic fluorescence-based activity assay), VIM-1. The method, then:
as §1, §2

T1 sequence (C7C422 29-270, looked up, species assumed): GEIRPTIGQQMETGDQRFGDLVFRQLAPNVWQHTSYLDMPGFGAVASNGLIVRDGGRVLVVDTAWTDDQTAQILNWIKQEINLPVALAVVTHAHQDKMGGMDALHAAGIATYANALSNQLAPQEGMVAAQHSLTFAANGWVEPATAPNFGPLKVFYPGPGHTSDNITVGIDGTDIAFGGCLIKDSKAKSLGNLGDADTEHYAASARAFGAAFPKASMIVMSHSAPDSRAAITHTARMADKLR
IMP-7, sequence (Q93AU3 entry or part of it): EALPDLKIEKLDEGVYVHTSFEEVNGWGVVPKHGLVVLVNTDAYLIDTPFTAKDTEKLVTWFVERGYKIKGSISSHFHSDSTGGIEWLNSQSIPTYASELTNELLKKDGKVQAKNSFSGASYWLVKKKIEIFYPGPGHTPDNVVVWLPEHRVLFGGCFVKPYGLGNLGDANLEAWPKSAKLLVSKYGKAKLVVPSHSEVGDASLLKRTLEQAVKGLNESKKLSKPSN

The term IC50 denotes the concentration at which inhibition is half-maximal. A low value points to inhibition by little substance. With `O=C(CCS)Nc1cccc([N+](=O)[O-])c1` [HIPS5662], the IC50 against NDM-1 is 2.5 ± 0.2 µM; against IMP-7, 2.6 ± 0.1 µM; against VIM-1, 0.1 µM.

For `O=C(CCS)Nc1ccccc1O` [HIPS5661], the IC50 against NDM-1 is 2.2 ± 0.4 µM; at IMP-7, 3.3 ± 0.4 µM; at VIM-1, 0.2 µM.

On to `COC(=O)c1ccccc1NC(=O)CCS` [HIPS1685], for which the IC50 at NDM-1 turned out to be 1.3 ± 0.2 µM; at IMP-7, 1 ± 0.1 µM. On VIM-1, the “IC50 (μM) VIM-1” value is reported as “n.i”.

Consider `O=C(CCS)Nc1ccc(O)cc1` [HIPS5190], for which the results for the IC50 at NDM-1, on IMP-7 and against VIM-1 were 4 ± 1.1 µM, 3.4 ± 0.7 µM and 0.2 µM, respectively.

For the compound `Nc1ccc(NC(=O)CCS)cc1` [HIPS5666], the IC50 on NDM-1 is 6.5 ± 0.5 µM; at IMP-7 it was 2.1 ± 0.3 µM; against VIM-1 it was 0.5 µM.

`CS(=O)(=O)Nc1ccccc1NC(=O)CCS` [HIPS5654]: the IC50 at NDM-1 was found to be 7 ± 0.3 µM; on VIM-1 it was 1.9 ± 0.2 µM. For the same compound, on IMP-7, the “IC50 (μM) IMP-7” value is given as “n.i”.

On to `CS(=O)(=O)Nc1cccc(NC(=O)CCS)c1` [HIPS5585], for which the IC50 against NDM-1 stood at 2.2 ± 0.3 µM; against IMP-7 it was 1.3 µM; against VIM-1 it was 1.3 µM.

`COC(=O)c1ccc(NC(=O)CCS)cc1` [HIPS5586]: the results for the IC50 against NDM-1, on IMP-7 and at VIM-1 were 2.8 ± 0.1 µM, 1.1 ± 0.7 µM and 0.1 µM, respectively.

As to `CC(=O)c1ccc(NC(=O)CCS)cc1` [HIPS5188], the half-maximal inhibitory concentration (IC50) is 1.5 ± 0.3 µM at NDM-1, 5.5 ± 0.1 µM against IMP-7 and 0.4 ± 0.1 µM at VIM-1.

For the compound `O=C(CCS)Nc1cccc(O)c1` [HIPS1687], the figures for the IC50 against NDM-1, against IMP-7 and on VIM-1 were 2.7 ± 0.5 µM, 1.4 ± 0.2 µM and 0.1 µM, respectively.

As for `O=C(CCS)Nc1ccc(S(=O)(=O)N2CCOCC2)cc1` [HIPS5659], the IC50 came to 2.5 ± 0.2 µM at NDM-1, 7.1 ± 1.4 µM against IMP-7 and 1.7 ± 0.3 µM on VIM-1.

In the case of `CN1CCN(Cc2ccc(NC(=O)CCS)cc2)CC1` [HIPS5696], the IC50 at NDM-1 came to 6.4 ± 0.6 µM; at IMP-7 it was 5.8 ± 0.4 µM; at VIM-1, 1.5 ± 0.1 µM.

On to `CCN(CC)Cc1cccc(NC(=O)CCS)c1` [HIPS5664], for which the values for the IC50 against NDM-1, at IMP-7 and on VIM-1 were 6.5 ± 0.4 µM, 5.5 ± 0.7 µM and 0.8 ± 0.1 µM, respectively.

On to `CN(C)S(=O)(=O)c1ccc(NC(=O)CCS)cc1` [HIPS5665], for which the IC50 against NDM-1 was 2.8 ± 0.1 µM; on IMP-7, 2.1 ± 0.2 µM; against VIM-1, 0.8 µM.

Values taken from US20230146507A1, “N-PHENYL-3-MERCAPTOPROPANAMIDE DERIVATIVES AS METALLO-BETA-LACTAMASE INHIBITORS FOR THE TREATMENT OF BACTERIAL INFECTIONS” (Helmholtz-Zentrum Für Infektionsforschung GmbH, priority 2020, published 2023).
